Reference: patent US11414379B2, “SPAK kinase inhibitors as neuroprotective agents” (United States Government as represented by the Department …, priority 2018, dated 2022)

Columns and labels:
Assay in all cases: Kinase panel (Dundee profiling)
Type in all cases: biochemical
Aurora A = Aurora A (Homo sapiens, UniProt O14965); details: read-out: % residual kinase activity
Experimental: (§1) The kinase selectivity of ZT-1a was further assessed using standard radioisotopic enzymatic assays against a panel of 140 recombinant kinases (Dundee profiling, Table 2) (Bain et al. (2007) The Biochemical journal 408, 297-315). ZT-1a at a concentration of 10 μM inhibited only MAPKAP-K2 activity 85±7% compared to DMSO control, representing high kinase selectivity.
(§2) Referring to Table 2, ZT-1a was tested at 10 and 1 μM against a panel of 140 recombinant kinases in an enzymatic activity-based assay performed by the International Centre for Kinase Profiling in the MRC Protein Phosphorylation and Ubiquitylation Unit. Values represent % residual kinase activity (mean+/−SEM, n=3). Kinases labelled with an asterick* are inhibited ≥50% by ZT-1a.

BTK = BTK (Homo sapiens, UniProt Q06187); details: read-out: % residual kinase activity
Experimental: as §1, §2

CDK2-Cyclin A = CDK2-Cyclin A (Homo sapiens, UniProt P24941); details: read-out: % residual kinase activity
Experimental: as §1, §2

DAPK1 = DAPK1 (Homo sapiens, UniProt P53355); details: read-out: % residual kinase activity
Experimental: as §1, §2

DYRK2 = DYRK2 (Homo sapiens, UniProt Q92630); details: read-out: % residual kinase activity
Experimental: as §1, §2

DYRK3 = DYRK3 (Homo sapiens, UniProt O43781); details: read-out: % residual kinase activity
DYRK3, sequence (O43781 whole entry, species assumed): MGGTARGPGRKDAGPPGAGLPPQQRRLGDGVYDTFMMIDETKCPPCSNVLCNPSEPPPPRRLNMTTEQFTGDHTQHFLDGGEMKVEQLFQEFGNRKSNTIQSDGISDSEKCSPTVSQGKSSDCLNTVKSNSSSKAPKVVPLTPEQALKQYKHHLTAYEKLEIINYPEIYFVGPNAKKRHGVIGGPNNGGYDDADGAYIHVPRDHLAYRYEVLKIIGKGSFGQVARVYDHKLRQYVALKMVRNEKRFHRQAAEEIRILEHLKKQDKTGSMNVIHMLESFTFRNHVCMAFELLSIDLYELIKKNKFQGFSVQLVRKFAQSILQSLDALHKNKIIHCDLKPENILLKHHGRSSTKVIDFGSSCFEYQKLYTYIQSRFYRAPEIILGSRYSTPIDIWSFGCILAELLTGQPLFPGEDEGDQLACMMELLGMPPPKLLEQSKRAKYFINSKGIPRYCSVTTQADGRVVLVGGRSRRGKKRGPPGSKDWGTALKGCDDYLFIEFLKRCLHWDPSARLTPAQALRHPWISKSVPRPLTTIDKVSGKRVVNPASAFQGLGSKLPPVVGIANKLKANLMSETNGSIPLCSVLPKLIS
Experimental: as §1, §2

EPH-B2 = EPH-B2 (Homo sapiens, UniProt P29323); details: read-out: % residual kinase activity
EPH-B2, sequence (P29323 19-1055, species assumed): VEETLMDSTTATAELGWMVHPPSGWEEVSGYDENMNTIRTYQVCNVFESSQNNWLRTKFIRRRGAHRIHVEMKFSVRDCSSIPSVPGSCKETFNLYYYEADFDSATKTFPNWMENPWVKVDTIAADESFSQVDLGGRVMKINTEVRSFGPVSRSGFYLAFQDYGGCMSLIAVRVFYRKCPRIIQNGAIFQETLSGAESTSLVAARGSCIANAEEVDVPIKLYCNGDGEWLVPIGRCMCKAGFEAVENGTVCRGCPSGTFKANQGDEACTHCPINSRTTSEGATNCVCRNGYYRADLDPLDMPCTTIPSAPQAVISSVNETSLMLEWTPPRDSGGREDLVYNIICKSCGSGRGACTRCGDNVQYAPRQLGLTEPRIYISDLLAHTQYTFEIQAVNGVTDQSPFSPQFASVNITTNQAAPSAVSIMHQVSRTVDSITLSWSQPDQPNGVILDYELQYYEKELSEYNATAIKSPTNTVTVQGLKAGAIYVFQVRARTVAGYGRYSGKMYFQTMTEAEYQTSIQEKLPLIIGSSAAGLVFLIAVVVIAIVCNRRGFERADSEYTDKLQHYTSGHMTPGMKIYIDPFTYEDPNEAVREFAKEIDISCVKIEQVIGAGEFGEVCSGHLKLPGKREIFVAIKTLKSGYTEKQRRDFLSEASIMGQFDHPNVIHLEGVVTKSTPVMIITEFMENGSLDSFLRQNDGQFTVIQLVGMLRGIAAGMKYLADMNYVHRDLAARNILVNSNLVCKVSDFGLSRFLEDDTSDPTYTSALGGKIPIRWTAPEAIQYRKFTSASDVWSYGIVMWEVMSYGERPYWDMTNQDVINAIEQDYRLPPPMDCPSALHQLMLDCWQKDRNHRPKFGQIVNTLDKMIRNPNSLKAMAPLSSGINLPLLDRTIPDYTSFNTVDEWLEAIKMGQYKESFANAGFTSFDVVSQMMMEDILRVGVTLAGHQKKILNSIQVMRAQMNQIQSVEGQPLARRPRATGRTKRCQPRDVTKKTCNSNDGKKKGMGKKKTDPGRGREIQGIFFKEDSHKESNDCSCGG
Experimental: as §1, §2

EPH-B3 = EPH-B3 (Homo sapiens, UniProt P54753); details: read-out: % residual kinase activity
Experimental: as §1, §2

EPH-B4 = EPH-B4 (Homo sapiens, UniProt P54760); details: read-out: % residual kinase activity
Experimental: as §1, §2

GCK = GCK (Homo sapiens, UniProt Q12851); details: read-out: % residual kinase activity
Experimental: as §1, §2

HER4 = HER4 (Homo sapiens, UniProt Q15303); details: read-out: % residual kinase activity
Experimental: as §1, §2

IKKe = IKKe (Homo sapiens, UniProt Q14164); details: read-out: % residual kinase activity
IKKe, sequence (Q14164 whole entry, species assumed): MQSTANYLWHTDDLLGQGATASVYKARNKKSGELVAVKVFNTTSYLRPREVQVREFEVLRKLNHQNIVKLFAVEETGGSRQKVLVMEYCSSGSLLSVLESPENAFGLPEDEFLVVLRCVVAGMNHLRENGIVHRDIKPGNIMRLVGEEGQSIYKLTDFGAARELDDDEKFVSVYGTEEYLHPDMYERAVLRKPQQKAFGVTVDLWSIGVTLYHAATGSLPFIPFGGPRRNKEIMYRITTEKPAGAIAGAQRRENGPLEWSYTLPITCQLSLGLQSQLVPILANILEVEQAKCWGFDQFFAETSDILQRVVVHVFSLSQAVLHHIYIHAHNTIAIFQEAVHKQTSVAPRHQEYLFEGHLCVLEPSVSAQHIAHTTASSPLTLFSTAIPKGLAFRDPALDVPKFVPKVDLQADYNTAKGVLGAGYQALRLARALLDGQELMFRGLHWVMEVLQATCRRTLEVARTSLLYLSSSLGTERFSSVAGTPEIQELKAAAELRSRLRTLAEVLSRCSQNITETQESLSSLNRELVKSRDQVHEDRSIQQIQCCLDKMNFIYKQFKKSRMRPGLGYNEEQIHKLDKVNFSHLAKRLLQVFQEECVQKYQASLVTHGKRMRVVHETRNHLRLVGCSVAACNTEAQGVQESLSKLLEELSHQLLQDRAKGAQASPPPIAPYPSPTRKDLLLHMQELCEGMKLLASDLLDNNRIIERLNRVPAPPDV
Experimental: as §1, §2

IRAK4 = IRAK4 (Homo sapiens, UniProt Q9NWZ3); details: read-out: % residual kinase activity
Experimental: as §1, §2

JNK3 = JNK3 (Homo sapiens, UniProt P53779); details: read-out: % residual kinase activity
Experimental: as §1, §2

MAP4K5 = MAP4K5 (Homo sapiens, UniProt Q9Y4K4); details: read-out: % residual kinase activity
Experimental: as §1, §2

MAPKAP-K2 = MAPKAP-K2 (Homo sapiens, UniProt P49137)
MAPKAP-K2, sequence (P49137 whole entry, species assumed): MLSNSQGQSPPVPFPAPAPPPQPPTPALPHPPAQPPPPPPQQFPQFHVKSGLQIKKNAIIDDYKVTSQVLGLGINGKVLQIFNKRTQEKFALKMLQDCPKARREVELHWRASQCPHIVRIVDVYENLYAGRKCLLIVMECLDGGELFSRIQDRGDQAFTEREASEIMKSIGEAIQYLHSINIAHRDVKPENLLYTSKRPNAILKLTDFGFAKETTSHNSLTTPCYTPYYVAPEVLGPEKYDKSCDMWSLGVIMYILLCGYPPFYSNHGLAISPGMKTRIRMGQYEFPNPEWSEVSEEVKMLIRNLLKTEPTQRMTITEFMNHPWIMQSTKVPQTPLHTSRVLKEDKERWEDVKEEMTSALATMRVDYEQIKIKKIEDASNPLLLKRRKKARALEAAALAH
Experimental: as §1, §2

MARK1 = MARK1 (Homo sapiens, UniProt Q9P0L2); details: read-out: % residual kinase activity
Experimental: as §1, §2

MKK1 = MKK1 (Homo sapiens, UniProt Q02750); details: read-out: % residual kinase activity
Experimental: as §1, §2

MLK3 = MLK3 (Homo sapiens, UniProt Q16584); details: read-out: % residual kinase activity
Experimental: as §1, §2

MNK1 = MNK1 (Homo sapiens, UniProt Q9BUB5); details: read-out: % residual kinase activity
Experimental: as §1, §2

MPSK1 = MPSK1 (Homo sapiens, UniProt O75716); details: read-out: % residual kinase activity
Experimental: as §1, §2

MST2 = MST2 (Homo sapiens, UniProt Q13188); details: read-out: % residual kinase activity
MST2, sequence (Q13188 whole entry, species assumed): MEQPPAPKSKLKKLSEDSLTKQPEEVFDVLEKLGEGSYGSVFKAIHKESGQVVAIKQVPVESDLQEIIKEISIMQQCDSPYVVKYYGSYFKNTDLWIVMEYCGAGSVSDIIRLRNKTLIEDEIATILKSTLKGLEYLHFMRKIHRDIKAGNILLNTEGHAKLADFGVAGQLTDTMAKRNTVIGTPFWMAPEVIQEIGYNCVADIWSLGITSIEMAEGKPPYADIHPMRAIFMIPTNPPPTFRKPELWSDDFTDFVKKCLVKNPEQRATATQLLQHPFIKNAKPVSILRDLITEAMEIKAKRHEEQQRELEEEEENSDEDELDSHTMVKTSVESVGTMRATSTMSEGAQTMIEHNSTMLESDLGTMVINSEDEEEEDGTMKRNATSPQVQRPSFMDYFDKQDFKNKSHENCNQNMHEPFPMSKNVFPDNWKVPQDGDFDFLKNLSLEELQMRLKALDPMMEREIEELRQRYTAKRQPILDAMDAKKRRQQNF
Experimental: as §1, §2

NEK6 = NEK6 (Homo sapiens, UniProt Q9HC98); details: read-out: % residual kinase activity
Experimental: as §1, §2

PHK = PHK (Homo sapiens, UniProt Q16816); details: read-out: % residual kinase activity
Experimental: as §1, §2

PKCγ = PKCγ (Homo sapiens, UniProt P05129); details: read-out: % residual kinase activity
Experimental: as §1, §2

PRK2 = PRK2 (Homo sapiens, UniProt Q16513); details: read-out: % residual kinase activity
Experimental: as §1, §2

SGK1 = SGK1 (Homo sapiens, UniProt O00141); details: read-out: % residual kinase activity
SGK1, sequence (O00141 whole entry, species assumed): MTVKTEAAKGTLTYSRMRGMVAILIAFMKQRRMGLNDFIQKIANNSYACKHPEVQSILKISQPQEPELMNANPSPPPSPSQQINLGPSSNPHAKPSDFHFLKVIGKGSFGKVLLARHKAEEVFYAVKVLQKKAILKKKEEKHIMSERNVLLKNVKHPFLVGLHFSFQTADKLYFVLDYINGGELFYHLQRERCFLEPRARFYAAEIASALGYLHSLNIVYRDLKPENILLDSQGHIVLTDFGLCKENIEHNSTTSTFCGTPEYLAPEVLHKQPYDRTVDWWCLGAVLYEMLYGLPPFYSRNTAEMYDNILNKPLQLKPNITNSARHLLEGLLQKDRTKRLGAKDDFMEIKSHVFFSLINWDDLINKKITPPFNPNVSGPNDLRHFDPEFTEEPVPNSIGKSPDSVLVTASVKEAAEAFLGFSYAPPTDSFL
Experimental: as §1, §2

TAO1 = TAO1 (Homo sapiens, UniProt Q7L7X3); details: read-out: % residual kinase activity
Experimental: as §1, §2

TBK1 = TBK1 (Homo sapiens, UniProt Q9UHD2); details: read-out: % residual kinase activity
TBK1, sequence (Q9UHD2 whole entry, species assumed): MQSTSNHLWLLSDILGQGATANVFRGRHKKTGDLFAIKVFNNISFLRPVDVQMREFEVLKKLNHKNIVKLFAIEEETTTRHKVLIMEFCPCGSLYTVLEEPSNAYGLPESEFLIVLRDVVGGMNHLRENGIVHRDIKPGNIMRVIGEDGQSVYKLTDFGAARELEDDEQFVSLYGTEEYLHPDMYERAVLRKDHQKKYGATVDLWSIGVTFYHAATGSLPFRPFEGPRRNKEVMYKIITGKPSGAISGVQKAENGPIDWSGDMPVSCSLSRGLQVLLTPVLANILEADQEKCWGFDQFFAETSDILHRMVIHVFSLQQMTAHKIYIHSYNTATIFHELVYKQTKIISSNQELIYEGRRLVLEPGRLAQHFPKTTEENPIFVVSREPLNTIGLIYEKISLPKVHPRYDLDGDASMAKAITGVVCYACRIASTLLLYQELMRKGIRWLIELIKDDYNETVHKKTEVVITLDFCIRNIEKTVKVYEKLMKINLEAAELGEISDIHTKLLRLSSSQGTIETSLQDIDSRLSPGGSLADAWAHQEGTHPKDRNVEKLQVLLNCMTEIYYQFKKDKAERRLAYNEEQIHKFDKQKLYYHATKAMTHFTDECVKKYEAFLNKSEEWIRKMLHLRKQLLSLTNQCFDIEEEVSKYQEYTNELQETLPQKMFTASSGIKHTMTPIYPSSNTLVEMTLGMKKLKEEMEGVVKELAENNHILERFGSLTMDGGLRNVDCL
Experimental: as §1, §2

ULK2 = ULK2 (Homo sapiens, UniProt Q8IYT8); details: read-out: % residual kinase activity
Experimental: as §1, §2

p38g MAPK = p38g MAPK (Homo sapiens, UniProt P53778); details: read-out: % residual kinase activity
p38g MAPK, sequence (P53778 whole entry): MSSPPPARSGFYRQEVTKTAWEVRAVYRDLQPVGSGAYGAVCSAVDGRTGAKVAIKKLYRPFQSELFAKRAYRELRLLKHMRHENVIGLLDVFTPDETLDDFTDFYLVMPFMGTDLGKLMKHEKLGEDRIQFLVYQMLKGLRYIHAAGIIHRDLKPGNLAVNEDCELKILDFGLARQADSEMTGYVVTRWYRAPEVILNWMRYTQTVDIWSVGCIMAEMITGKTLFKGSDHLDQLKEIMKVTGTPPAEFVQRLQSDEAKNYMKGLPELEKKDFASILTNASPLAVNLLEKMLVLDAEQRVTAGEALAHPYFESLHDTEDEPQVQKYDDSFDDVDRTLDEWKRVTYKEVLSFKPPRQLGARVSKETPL
Experimental: as §1, §2

Q: How did the remaining activity at 1 µM (Aurora A; 1 μM) turn out when Cc1cc(C(C#N)c2ccc(Cl)cc2)c(Cl)cc1NC(=O)c1cc(Cl)ccc1O (stereo not drawn) [ZT-1a, 5-chloro-N-(5-chloro-4-((4-chlorophenyl)(cyano)methyl)-2-methylphenyl)-2-hydroxy-benzamide] was run?
A: 73 ± 19%

Q: And the remaining activity at 10 µM (Aurora A; 10 μM)?
A: 65 ± 1%

Q: And the remaining activity at 1 µM (BTK; 1 μM)?
A: 113 ± 1%

Q: What about the remaining activity at 10 µM (BTK; 10 μM) of the same molecule?
A: 73 ± 2%

Q: And the remaining activity at 1 µM (CDK2-Cyclin A; 1 μM)?
A: 128 ± 12%

Q: And the remaining activity at 10 µM (CDK2-Cyclin A; 10 μM)?
A: 125 ± 6%

Q: What about the remaining activity at 1 µM (DAPK1; 1 μM) of the same molecule?
A: 131 ± 8%

Q: What about the remaining activity at 10 µM (DAPK1; 10 μM) of the same molecule?
A: 159 ± 11%

Q: What about the remaining activity at 1 µM (DYRK2; 1 μM) of the same molecule?
A: 111 ± 15%

Q: And the remaining activity at 10 µM (DYRK2; 10 μM)?
A: 97 ± 10%

Q: And the remaining activity at 1 µM (DYRK3; 1 μM)?
A: 113 ± 6%

Q: And the remaining activity at 10 µM (DYRK3; 10 μM)?
A: 56 ± 15%

Q: And the remaining activity at 1 µM (EPH-B2; 1 μM)?
A: 77 ± 2%

Q: And the remaining activity at 10 µM (EPH-B2; 10 μM)?
A: 81 ± 8%

Q: What about the remaining activity at 1 µM (EPH-B3; 1 μM) of the same molecule?
A: 88 ± 6%

Q: And the remaining activity at 10 µM (EPH-B3; 10 μM)?
A: 84 ± 6%

Q: What about the remaining activity at 1 µM (EPH-B4; 1 μM) of the same molecule?
A: 100 ± 8%

Q: What about the remaining activity at 10 µM (EPH-B4; 10 μM) of the same molecule?
A: 151 ± 33%

Q: What about the remaining activity at 1 µM (GCK; 1 μM) of the same molecule?
A: 112 ± 4%

Q: And the remaining activity at 10 µM (GCK; 10 μM)?
A: 97 ± 3%

Q: What about the remaining activity at 1 µM (HER4; 1 μM) of the same molecule?
A: 85 ± 8%

Q: What about the remaining activity at 10 µM (HER4; 10 μM) of the same molecule?
A: 84 ± 1%

Q: What about the remaining activity at 1 µM (IKKe; 1 μM) of the same molecule?
A: 87 ± 13%

Q: And the remaining activity at 10 µM (IKKe; 10 μM)?
A: 59 ± 5%

Q: What about the remaining activity at 1 µM (IRAK4; 1 μM) of the same molecule?
A: 127%

Q: What about the remaining activity at 10 µM (IRAK4; 10 μM) of the same molecule?
A: 127 ± 11%

Q: What about the remaining activity at 1 µM (JNK3; 1 μM) of the same molecule?
A: 63 ± 15%

Q: What about the remaining activity at 10 µM (JNK3; 10 μM) of the same molecule?
A: 60 ± 10%

Q: What about the remaining activity at 1 µM (MAP4K5; 1 μM) of the same molecule?
A: 95 ± 28%

Q: And the remaining activity at 10 µM (MAP4K5; 10 μM)?
A: 76 ± 9%

Q: And the inhibition at 10 µM (MAPKAP-K2; 10 μM, read-out: inhibition of MAPKAP-K2 activity compared to DMSO control)?
A: 85 ± 7%

Q: What about the remaining activity at 1 µM (MAPKAP-K2; MAPKAP-K2, 1 μM, read-out: % residual kinase activity) of the same molecule?
A: 91 ± 13%

Q: And the remaining activity at 10 µM (MAPKAP-K2; MAPKAP-K2, 10 μM, read-out: % residual kinase activity)?
A: 13 ± 7%

Q: And the remaining activity at 1 µM (MARK1; 1 μM)?
A: 104 ± 16%

Q: And the remaining activity at 10 µM (MARK1; 10 μM)?
A: 91 ± 5%

Q: What about the remaining activity at 1 µM (MKK1; 1 μM) of the same molecule?
A: 106 ± 2%

Q: And the remaining activity at 10 µM (MKK1; 10 μM)?
A: 114 ± 17%

Q: And the remaining activity at 1 µM (MLK3; 1 μM)?
A: 119 ± 11%

Q: What about the remaining activity at 10 µM (MLK3; 10 μM) of the same molecule?
A: 114 ± 3%

Q: And the remaining activity at 1 µM (MNK1; 1 μM)?
A: 78 ± 19%

Q: What about the remaining activity at 10 µM (MNK1; 10 μM) of the same molecule?
A: 87 ± 2%

Q: What about the remaining activity at 1 µM (MPSK1; 1 μM) of the same molecule?
A: 110 ± 6%

Q: And the remaining activity at 10 µM (MPSK1; 10 μM)?
A: 105 ± 2%

Q: What about the remaining activity at 1 µM (MST2; 1 μM) of the same molecule?
A: 115 ± 4%

Q: And the remaining activity at 10 µM (MST2; 10 μM)?
A: 113 ± 2%

Q: And the remaining activity at 1 µM (NEK6; 1 μM)?
A: 107 ± 6%

Q: What about the remaining activity at 10 µM (NEK6; 10 μM) of the same molecule?
A: 108 ± 1%

Q: What about the remaining activity at 1 µM (PHK; 1 μM) of the same molecule?
A: 97 ± 3%

Q: And the remaining activity at 10 µM (PHK; 10 μM)?
A: 107 ± 2%

Q: And the remaining activity at 1 µM (PKCγ; 1 μM)?
A: 133 ± 11%

Q: What about the remaining activity at 10 µM (PKCγ; 10 μM) of the same molecule?
A: 120 ± 8%

Q: What about the remaining activity at 1 µM (PRK2; 1 μM) of the same molecule?
A: 118 ± 4%

Q: And the remaining activity at 10 µM (PRK2; 10 μM)?
A: 120 ± 7%

Q: And the remaining activity at 1 µM (SGK1; 1 μM)?
A: 73 ± 14%

Q: And the remaining activity at 10 µM (SGK1; 10 μM)?
A: 58 ± 5%

Q: What about the remaining activity at 1 µM (TAO1; 1 μM) of the same molecule?
A: 66 ± 2%

Q: And the remaining activity at 10 µM (TAO1; 10 μM)?
A: 104 ± 2%

Q: What about the remaining activity at 1 µM (TBK1; 1 μM) of the same molecule?
A: 119 ± 10%

Q: And the remaining activity at 10 µM (TBK1; 10 μM)?
A: 94 ± 3%

Q: And the remaining activity at 1 µM (ULK2; 1 μM)?
A: 110 ± 11%

Q: And the remaining activity at 10 µM (ULK2; 10 μM)?
A: 49 ± 9%

Q: What about the remaining activity at 1 µM (p38g MAPK; 1 μM) of the same molecule?
A: 100 ± 11%

Q: What about the remaining activity at 10 µM (p38g MAPK; 10 μM) of the same molecule?
A: 100 ± 6%
